Results: patent US7022736B2, “Enzyme inhibitors” (Istituto Di Ricerche Di Biologia Molecolare P Angeletti SpA, priority 1998, dated 2006)
Read-outs that look alike come from different tables or passages of the source.

Legend:
[1] = biological target: T1, HCV RdRp (NS5B RNA-dependent RNA polymerase) (Hepatitis C virus genotype 1b, UniProt P26663); assay: Inhibition of hepatitis C virus RdRp (poly(A)/oligo(U), [3H]UTP incorporation); type: biochemical
T1 construct: The HCV NS5B protein is the viral RdRp; made in house; host or cells: insect cells infected with recombinant baculovirus
Protocol: In initial tests, the compounds were tested to see if they were effective as inhibitors of the RNA-dependent RNA polymerase (RdRp) of hepatitis C virus (HCV). The HCV NS5B protein is the viral RdRp; compounds capable of interfering with the activity of this enzyme are thus expected to block viral replication.
Test for Inhibition of Hepatatis C Virus RdRp
WO96/37619 describes the production of recombinant HCV RdRp from insect cells infected with recombinant baculovirus encoding the enzyme. […] The reference describes a polymerisation assay using poly (A) as a template and oligo (U) as a primer. Incorporation of tritiated UTP is quantified by measuring acid-insoluble radioactivity. The present inventors have employed this assay to screen the various compounds described above as inhibitors of HCV RdRp and other virally encoded polymerases.
Incorporation of radioactive UMP was measured as follows. The standard reaction (100 μl) was carried out in a buffer containing 20 mM tris/HCl pH 7.5, 5 mM MgCl2, 1 mM DTT, 50 mM NaCl, 1 mM EDTA, 2 OU Rnasin (Promega), 0.05% Triton X-100, 1 μCi[^3H] UTP (40 Ci/mmol,NEN), 10 μM UTP and 10 μg/ml poly (A). Oligo (U)12 (1 μg/ml, Genset) was added as a primer. The final NSSB enzyme concentration was 20 nM. After 1 hour incubation at 22° C. the reaction was stopped by adding 100 μl of 20% TCA and applying samples to DE81 filters. The filters were washed thoroughly with 5% TCA containing 1M Na2HPO4/NaH2PO4, pH 7.0, rinsed with water and then ethanol, air dried, and the filter-bound radioactivity was measured in the scintillation counter. By carrying out the reaction in the presence of various concentrations of each of the compounds set out above it was possible to determine IC50 values for each compound with the formula: % residual activity=100/(1+[I]/IC50)^s where [I] is the inhibitor concentration and “s” is the slope of the inhibition curve. Test for Inhibition of Hepatitis B Virus Polymerase

[2] = biological target: T2, reverse transcriptase of HIV (HIV-1 RT) (Human immunodeficiency virus type 1 group M subtype B, UniProt P03366); assay: Inhibition of HIV-1 reverse transcriptase ([3H]dTTP incorporation); type: biochemical, Human Immunodeficiency Virus-1; details: Tables IXa-IXc; unit inferred; NA=not active as an inhibitor
T2 construct: the reverse transcriptase of HIV (HIV -1RT) from Boehringer Mannhium; purchased Boehringer Mannheim (printed 'Boehringer Mannhium')
Protocol: Test for Inhibition of Human Immunodeficiency Virus-1 Reverse Transcriptase
Analogous assays employed the reverse transcriptase of HIV (HIV -1RT) from Boehringer Mannhium.
Incorporation of radioactive dTTP was measured as follows. The standard reaction (100 μl) was carried out in a buffer containing 50 mM tris/HCl pH 8.2, 2.5 mM MgCl 2, 1 mM DTT, 80 mM KCl, 5 mM EGTA, 0.05% Triton X-100, 1 μCi[3H] dTTP (40 Ci/mmol, NEN), 10 μM […] and 10 μg/ml poly(A)/dT (from Pharmacia).

[3] = Tables I-VIII, 20 nM NS5B, 1 hour at 22° C., read-out: IC 50 (μM), HCV-polymerase
[4] = Tables IXa-IXc, unit inferred, read-out: HCV (IC50)

T1 sequence (P26663 2420-3010): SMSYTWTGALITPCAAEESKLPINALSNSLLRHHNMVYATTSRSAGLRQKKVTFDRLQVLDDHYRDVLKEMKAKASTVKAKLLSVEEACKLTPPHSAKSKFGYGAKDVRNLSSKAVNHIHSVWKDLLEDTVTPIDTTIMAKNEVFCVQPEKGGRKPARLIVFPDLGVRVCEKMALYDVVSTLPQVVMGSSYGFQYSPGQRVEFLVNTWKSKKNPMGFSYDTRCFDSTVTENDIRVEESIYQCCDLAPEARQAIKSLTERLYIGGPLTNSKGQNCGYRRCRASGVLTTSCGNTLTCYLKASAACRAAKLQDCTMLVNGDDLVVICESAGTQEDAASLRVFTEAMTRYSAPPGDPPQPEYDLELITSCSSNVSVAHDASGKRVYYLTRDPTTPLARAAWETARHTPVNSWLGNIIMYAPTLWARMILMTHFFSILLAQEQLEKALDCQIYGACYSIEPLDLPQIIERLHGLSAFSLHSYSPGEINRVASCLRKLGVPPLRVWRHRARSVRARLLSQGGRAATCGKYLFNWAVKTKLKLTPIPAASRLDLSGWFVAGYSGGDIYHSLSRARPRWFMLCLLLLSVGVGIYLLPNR

| Structure (SMILES) | IC50 [1, 3] | IC50 [1, 4] | IC50 [2] |
| --- | --- | --- | --- |
| O=C(O)C(O)=CC(=O)C12CC3CC(CC(C3)C1)C2 [Example 243] | 6.7 µM | 6.7 µM | 26.8 µM |
| O=C(O)C(=O)Nc1cccc(C(=O)C=C(O)C(=O)O)c1 [Example 24] | 19 µM | 19 µM | 71 µM |
| O=C(O)CCCOc1ccccc1C(=O)C=C(O)C(=O)O [Example 27] | 2.84 µM | 3 µM | > 50 µM |
| O=C(O)C(O)=CC(=O)c1ccccc1OCc1ccccc1 [Example 8] | 44 µM | 44 µM | 19 µM |
| O=C(O)C(O)=CC(=O)c1cccc(OCCc2ccccc2)c1 [Example 18] | 2.2 µM | 2.2 µM | 30 µM |
| N#CCCCOc1ccc(Cl)cc1C(=O)C=C(O)C(=O)O [Example 36] | 1.6 µM | 1.6 µM | 24 µM |
| N#CCCCOc1ccc(O)cc1C(=O)C=C(O)C(=O)O [Example 53] | 0.115 µM | 0.115 µM | 37 µM |
| O=C(O)C(O)=CC(=O)c1cccc(NS(=O)(=O)c2cc(Cl)cc(Cl)c2)c1 [Example 117] | 0.14 µM | 0.14 µM | 100 µM |
| Cc1ccc(C(=O)C=C(O)C(=O)O)cc1 [Example 161] | 2.8 µM | 2.8 µM | 320 µM |
| N#Cc1ccc(Br)cc1COc1cccc(C(=O)C=C(O)C(=O)O)c1 [Example 113] | 0.1 µM | 0.1 µM | 90 µM |
| N#Cc1ccccc1OCc1cccc(C(=O)C=C(O)C(=O)O)c1 [Example 112] | 1.33 µM | 1.33 µM | 90 µM |
| O=C(O)C(O)=CC(=O)c1ccc(-c2ccc(F)c(Cl)c2)o1 [Example 218] | 41.2 µM | 41.2 µM | 11.8 µM |
| O=C(O)C(O)=CC(=O)c1cccc(O)c1 [Example 23] | 0.94 µM | 1 µM | 59 µM |
| O=C(O)C(O)=CC(=O)c1ccc(-c2cc(Cl)cc(Cl)c2)o1 [Example 258] |  | > 100 µM | 3.6 µM |
| C=CCOc1ccccc1C(=O)C=C(O)C(=O)O [Example 16] | 4.3 µM | 4.3 µM | > 100 µM |
| COc1cc(C)c(C#N)c(COc2cccc(C(=O)C=C(O)C(=O)O)c2)c1 [Example 111] | 0.12 µM | 0.12 µM | 80 µM |
| Cc1ccc(-c2sccc2C(=O)C=C(O)C(=O)O)cc1 [Example 226] | 17 µM |  |  |
| CCCCS(=O)(=O)N1CCCC(Cc2ccc(Cl)cc2)(C(=O)C=C(O)C(=O)O)C1 (stereo not shown) [Example 245] | 81.4 µM |  |  |
| N#CCCCOc1ccc(N)cc1C(=O)C=C(O)C(=O)O [Example 63] | 1.7 µM |  |  |
| O=C(O)C(O)=CC(=O)c1cc(I)cn1Cc1ccc(F)cc1 [Example 190] | 18 µM | 18 µM |  |

| Structure (SMILES) | IC50 [1, 3] | IC50 [1, 4] | IC50 [2] |
| --- | --- | --- | --- |
| Cc1c[nH]c(C)c1C(=O)C=C(O)C(=O)O [Example 219] | 23.7 µM |  |  |
| O=C(O)C(O)=CC(=O)C1=CCCCC1 [Example 254] | 14 µM |  |  |
| N#CCCCOc1ccc(OCCCC#N)c(C(=O)C=C(O)C(=O)O)c1 [Example 35] | 6.1 µM |  |  |
| O=C(O)C(O)=CC(=O)c1ccc(N2CCCC2)s1 [Example 195] | 11.1 µM |  |  |
| O=C(O)C(O)=CC(=O)C1(c2ccccc2)CCN(S(=O)(=O)c2cccc(Cl)c2)CC1 [Example 246] | 18 µM |  |  |
| O=C(O)C(O)=CC(=O)c1cccn1Cc1ccccc1Cl [Example 186] | 24 µM |  |  |
| O=C(O)C(O)=CC(=O)c1cc(Cc2ccccc2)ccc1F [Example 152] | 20 µM |  |  |
| O=C(O)C(O)=CC(=O)c1ccccc1Oc1ccc(F)cc1 [Example 37] | 18 µM |  |  |
| O=C(O)C(O)=CC(=O)c1cc(-c2cccnc2)cs1 [Example 197] | 11 µM |  |  |
| O=C(O)/C(O)=C/C(=O)C1(Cc2ccc(Cl)cc2)CCCN(S(=O)(=O)c2ccc(Br)cc2)C1 (stereo not shown) [Example 252] | 61 µM |  |  |
| O=C(O)C(O)=CC(=O)c1cccc(OCc2cccc(Oc3ccccc3)c2)c1 [Example 104] | 50 µM |  |  |
| O=C(O)C(O)=CC(=O)c1cccc(OCCCCn2c(C(F)(F)F)nc3ccccc32)c1 [Example 22] | 19 µM |  |  |
| O=C(O)C(O)=CC(=O)c1cccc(N(Cc2ccccc2)Cc2ccccc2)c1 [Example 41] | 28.9 µM |  |  |
| Cc1ccc(C(=O)C=C(O)C(=O)O)c(C)c1 [Example 165] | 2 µM | 2 µM |  |
| N#Cc1ccc(COc2ccccc2C(=O)C=C(O)C(=O)O)cc1 [Example 25] | 28 µM |  |  |
| N#Cc1ccccc1Cn1cccc1C(=O)C=C(O)C(=O)O [Example 184] | 6.7 µM |  |  |
| O=C(O)C(O)=CC(=O)C(c1ccccc1)c1ccccc1 [Example 244] | 77 µM |  |  |
| CCCSc1ccccc1C(=O)C=C(O)C(=O)O [Example 34] | 9.6 µM |  |  |
| O=C(O)C(O)=CC(=O)c1sccc1Cl [Example 194] | 16 µM |  |  |

Further lines, with some results ahead:

| IC50 [1, 3] | Structure (SMILES) | IC50 [1, 4] | IC50 [2] |
| --- | --- | --- | --- |
| 13.7 µM | O=C(O)C(O)=CC(=O)c1cccc(OCc2cccc[n+]2[O-])c1 [Example 105] |  |  |
| 3.3 µM | O=C(O)C(O)=CC(=O)c1cccc(OCc2ccccc2Br)c1 [Example 89] |  |  |
| 0.14 µM | O=C(O)C(O)=CC(=O)c1cccc(NS(=O)(=O)c2c(Cl)sc(Cl)c2Br)c1 [Example 130] |  |  |
| 0.5 µM | O=C(O)C(O)=CC(=O)c1cccc(NS(=O)(=O)c2ccc3ccccc3c2)c1 [Example 114] |  |  |
| 20 µM | O=C(O)C(O)=CC(=O)c1cccc(Cc2cccc(Cl)c2)c1 [Example 43] |  |  |
| 1 µM | COc1cccc(COc2cccc(C(=O)C=C(O)C(=O)O)c2)c1 [Example 92] |  |  |
| 15 µM | CCCCCCOc1cccc(C(=O)C=C(O)C(=O)O)c1 [Example 30] |  |  |
| 7.08 µM | O=C(O)C(O)=CC(=O)c1cccc(OC2CCCCC2)c1 [Example 11] |  |  |
| 83.5 µM | O=C(O)C(O)=CC(=O)c1cccc(N2CCCC2)c1 [Example 15] |  |  |
| 26 µM | O=C(O)C(O)=CC(=O)c1csc2ccccc12 [Example 236] |  |  |
| 1.3 µM | Cc1cc(S(=O)(=O)Nc2cccc(C(=O)C=C(O)C(=O)O)c2)c(C)cc1Cl [Example 147] |  |  |
| 22 µM | O=C(O)C(O)=CC(=O)c1cccc(Cc2cccc(Br)c2)c1 [Example 48] |  |  |
| 0.56 µM | O=C(O)C(O)=CC(=O)c1cccc(NS(=O)(=O)c2ccc(Cl)c([N+](=O)[O-])c2)c1 [Example 141] |  |  |
| 9.2 µM | O=C(O)C(O)=CC(=O)c1ccsc1Cc1ccccc1Cl [Example 233] |  |  |
| 20.7 µM | O=C(O)C(O)=CC(=O)c1cccc(C2=CCCc3ccccc32)c1 [Example 47] |  |  |
| 9.4 µM | O=C(O)C(O)=CC(=O)c1ccsc1Cc1ccc(Cl)cc1 [Example 231] |  |  |
| > 50 µM | COc1cccc(OC)c1C(=O)C=C(O)C(=O)O [Example 172] |  |  |
| 1.4 µM | O=C(Nc1cccc(C(=O)C=C(O)C(=O)O)c1)OCc1ccccc1 [Example 81] |  |  |
| 2 µM | Cc1cccc(C(C)Oc2cccc(C(=O)C=C(O)C(=O)O)c2)c1C#N (stereo not shown) [Example 122] |  |  |
| 1.4 µM | O=C(O)C(O)=CC(=O)c1cccc(OCc2c(Cl)cccc2Cl)c1 [Example 139] |  |  |
| 7 µM | O=C(O)C(O)=CC(=O)c1cccc(NS(=O)(=O)c2cccs2)c1 [Example 101] |  |  |
| 0.7 µM | O=C(O)C(O)=CC(=O)c1cccc(NS(=O)(=O)c2cc(Cl)ccc2Cl)c1 [Example 88] | 0.7 µM |  |
| 5.5 µM | O=C(O)C(O)=CC(=O)c1ccc(O)cc1 [Example 162] | 5.5 µM |  |
| 5.6 µM | O=C(O)C(O)=CC(=O)c1cccc(OCc2ccccn2)c1 [Example 73] |  |  |
| 7.9 µM | O=C(O)C(O)=CC(=O)c1ccc(Br)s1 [Example 198] | 7.9 µM |  |
| 50 µM | O=C(O)C(O)=CC(=O)c1cc(Cl)sc1Cl [Example 224] |  |  |
| 21 µM | O=C(O)C(O)=CC(=O)C1(c2ccccc2)CCN(S(=O)(=O)c2cc(Cl)c(Cl)cc2Cl)CC1 [Example 251] |  |  |
| 11.8 µM | O=C(O)C(O)=CC(=O)c1ccsc1Cc1cccc(Cl)c1 [Example 232] |  |  |
